The record followed here is ChEMBL document CHEMBL5724914, “Linking interpersonal differences in gut microbiota composition and drug biotransformation activity” (2024).

The structures appear in SMILES notation.

Series [1] in a line: The drug is tested on Z-025 corresponding to rabbit gut metagenome with ENA study accession number: PRJEB37062 and ENA sample accession number: ERS12561824 for biotransformation under anaerobic condition. The drug concentrations were measured over 9 timepoints collected between 0 and 24 hours of incubation by liquid-chromatography-coupled mass spectrometry (LC–MS). The following applies: 2 µM.

For series [2] the following is noted: human gut metagenome, 24 h, 2 µM.
The conditions of series [3]: human gut metagenome, 24 h, 2 µM. The source holds these as a separate data set.
Series [4] can be described thus: The drug is tested on WLS-027 corresponding to human gut metagenome with ENA study accession number: PRJEB37062 and ENA sample accession number: ERS12561744 for biotransformation under anaerobic condition. The drug concentrations were measured over 9 timepoints collected between 0 and 24 hours of incubation by liquid-chromatography-coupled mass spectrometry (LC–MS). Conditions: 2 µM.

Series [5] in a line: The drug is tested on WLS-090 corresponding to human gut metagenome with ENA study accession number: PRJEB37062 and ENA sample accession number: ERS12561753 for biotransformation under anaerobic condition. The drug concentrations were measured over 9 timepoints collected between 0 and 24 hours of incubation by liquid-chromatography-coupled mass spectrometry (LC–MS). The following applies: 2 µM.

Series [6] in a line: The drug is tested on WLS-370 corresponding to human gut metagenome with ENA study accession number: PRJEB37062 and ENA sample accession number: ERS12561793 for biotransformation under anaerobic condition. The drug concentrations were measured over 9 timepoints collected between 0 and 24 hours of incubation by liquid-chromatography-coupled mass spectrometry (LC–MS). The following applies: 2 µM.

Series [7] in a line: The drug is tested on WLS-069 corresponding to human gut metagenome with ENA study accession number: PRJEB37062 and ENA sample accession number: ERS12561748 for biotransformation under anaerobic condition. The drug concentrations were measured over 9 timepoints collected between 0 and 24 hours of incubation by liquid-chromatography-coupled mass spectrometry (LC–MS). The following applies: 2 µM.

Series [8] can be described thus: The drug is tested on Z-014 corresponding to rat gut metagenome with ENA study accession number: PRJEB37062 and ENA sample accession number: ERS12561814 for biotransformation under anaerobic condition. The drug concentrations were measured over 9 timepoints collected between 0 and 24 hours of incubation by liquid-chromatography-coupled mass spectrometry (LC–MS). Conditions: 2 µM.

For series [9] the following is noted: human gut metagenome, 24 h, 2 µM. The source holds these as a separate data set.
For series [10] the following is noted: human gut metagenome, 24 h, 2 µM. The source holds these as a separate data set.
Series [11] is described as follows: The drug is tested on Z-030 corresponding to mouse gut metagenome with ENA study accession number: PRJEB37062 and ENA sample accession number: ERS12561829 for biotransformation under anaerobic condition. The drug concentrations were measured over 9 timepoints collected between 0 and 24 hours of incubation by liquid-chromatography-coupled mass spectrometry (LC–MS). The following applies: 2 µM.

The conditions of series [12]: human gut metagenome, 24 h, 2 µM. This is another data set of the same source.
For series [13] the following is noted: human gut metagenome, 24 h, 2 µM. The source holds these as a separate data set.
Series [14] can be described thus: The drug is tested on Z-013 corresponding to rabbit gut metagenome with ENA study accession number: PRJEB37062 and ENA sample accession number: ERS12561813 for biotransformation under anaerobic condition. The drug concentrations were measured over 9 timepoints collected between 0 and 24 hours of incubation by liquid-chromatography-coupled mass spectrometry (LC–MS). Conditions: 2 µM.

Series [15] is described as follows: The drug is tested on WLS-007 corresponding to human gut metagenome with ENA study accession number: PRJEB37062 and ENA sample accession number: ERS12561742 for biotransformation under anaerobic condition. The drug concentrations were measured over 9 timepoints collected between 0 and 24 hours of incubation by liquid-chromatography-coupled mass spectrometry (LC–MS). The following applies: 2 µM.

The nature of series [16]: The drug is tested on Z-008 corresponding to metagenome with ENA study accession number: PRJEB37062 and ENA sample accession number: ERS12561808 for biotransformation under anaerobic condition. The drug concentrations were measured over 9 timepoints collected between 0 and 24 hours of incubation by liquid-chromatography-coupled mass spectrometry (LC–MS). Conditions: 2 µM.

For series [17] the following is noted: human gut metagenome, 24 h, 2 µM. The source holds these as a separate data set.
Series [18] in a line: The drug is tested on WLS-010 corresponding to human gut metagenome with ENA study accession number: PRJEB37062 and ENA sample accession number: ERS12561743 for biotransformation under anaerobic condition. The drug concentrations were measured over 9 timepoints collected between 0 and 24 hours of incubation by liquid-chromatography-coupled mass spectrometry (LC–MS). The following applies: 2 µM.

For series [19] the following is noted: human gut metagenome, 24 h, 2 µM. This is another data set of the same source.
Series [20] in a line: The drug is tested on WLS-082 corresponding to human gut metagenome with ENA study accession number: PRJEB37062 and ENA sample accession number: ERS12561751 for biotransformation under anaerobic condition. The drug concentrations were measured over 9 timepoints collected between 0 and 24 hours of incubation by liquid-chromatography-coupled mass spectrometry (LC–MS). Conditions: 2 µM.
Further: call rule not given here.

As for `COc1ccc2c(c1OC)C(=O)O[C@@H]2[C@H]1c2c(cc3c(c2OC)OCO3)CCN1C` [NOSCAPINE], the “Bacterial Biotransformation” value in [1] is “Compound NOT metabolized”; in series [2], “Compound NOT metabolized”; in [3] it was “Compound metabolized”; in series [4], “Compound NOT metabolized”; in series [5], “Compound metabolized”; in series [6], “Compound NOT metabolized”. In addition, the “Bacterial Biotransformation” value in series [7] is reported as “Compound metabolized”; in series [8], “Compound metabolized”; in [9], “Compound NOT metabolized”; in [10], “Compound NOT metabolized”; in [11], “Compound NOT metabolized”; in [12] it was “Compound metabolized”. The “Bacterial Biotransformation” value in series [13] is on record as “Compound metabolized”; in [14] it was “Compound NOT metabolized”; in [15] it was “Compound NOT metabolized”; in series [16], “Compound NOT metabolized”; in series [17] it was “Compound metabolized”; in series [18], “Compound NOT metabolized”. Further, the “Bacterial Biotransformation” value in [19] was “Compound metabolized”; in [20], “Compound NOT metabolized”.
In the case of `CCN(CC)CC#CCOC(=O)C(O)(c1ccccc1)C1CCCCC1.Cl` (stereo not given) [OXYBUTYNIN CHLORIDE], the “Bacterial Biotransformation” value in series [1] was “Compound NOT metabolized”; in [2], “Compound metabolized”; in [3], “Compound metabolized”; in series [4], “Compound metabolized”; in series [5] it was “Compound metabolized”; in series [6] it was “Compound metabolized”. For the same compound, the “Bacterial Biotransformation” value is recorded as “Compound metabolized” in [7]; “Compound NOT metabolized” in series [8]; “Compound metabolized” in series [9]; “Compound metabolized” in [10]; “Compound NOT metabolized” in series [11]; “Compound metabolized” in [12]. The “Bacterial Biotransformation” value in series [13] is “Compound metabolized”; in series [14], “Compound NOT metabolized”; in series [15], “Compound metabolized”; in series [16] it was “Compound NOT metabolized”; in series [17], “Compound metabolized”; in series [18], “Compound metabolized”. Also, the “Bacterial Biotransformation” value in series [19] and in series [20] was “Compound metabolized” throughout.
With `Fc1ccc([C@@H]2CCNC[C@H]2COc2ccc3c(c2)OCO3)cc1` [PAROXETINE], the “Bacterial Biotransformation” value is listed as “Compound NOT metabolized” in [1]; “Compound NOT metabolized” in series [2]; “Compound metabolized” in series [3]; “Compound metabolized” in series [4]; “Compound metabolized” in series [5]; “Compound metabolized” in series [6]. Also, the “Bacterial Biotransformation” value is reported as “Compound metabolized” in series [7]; “Compound NOT metabolized” in series [8]; “Compound metabolized” in [9]; “Compound NOT metabolized” in series [10]; “Compound NOT metabolized” in [11]; “Compound metabolized” in [12]. In addition, the “Bacterial Biotransformation” value in series [13] is listed as “Compound metabolized”; in series [14] it was “Compound NOT metabolized”; in [15], “Compound NOT metabolized”; in series [16], “Compound NOT metabolized”; in series [17] it was “Compound metabolized”; in [18], “Compound metabolized”. The figures for the “Bacterial Biotransformation” value in [19] and in [20] were “Compound NOT metabolized” and “Compound metabolized”, respectively.
On to `O=c1[nH]c2ccccc2n1C1CCN(CCCC(c2ccc(F)cc2)c2ccc(F)cc2)CC1` [PIMOZIDE], for which the “Bacterial Biotransformation” value in [1], in series [2], in series [3], in series [4], in series [5] and in [6] was “Compound metabolized” each time. Further, the “Bacterial Biotransformation” value in series [7] is on record as “Compound metabolized”; in [8], “Compound NOT metabolized”; in [9], “Compound metabolized”; in series [10] it was “Compound NOT metabolized”; in series [11] it was “Compound NOT metabolized”; in series [12], “Compound metabolized”. For the same compound, the “Bacterial Biotransformation” value in [13], in series [14], in series [15], in series [16], in series [17] and in series [18] was “Compound metabolized” each time. In addition, the “Bacterial Biotransformation” value in series [19] and in [20] was “Compound metabolized” throughout.
For `CS(=O)(=O)O.OC(CCN1CCCCC1)(c1ccccc1)c1ccccc1` [PRIDINOL METHANESULFONATE], the “Bacterial Biotransformation” value in [1] was “Compound NOT metabolized”; in series [2], “Compound NOT metabolized”; in series [3], “Compound metabolized”; in series [4], “Compound NOT metabolized”; in [5] it was “Compound metabolized”; in series [6], “Compound NOT metabolized”. For the same compound, the “Bacterial Biotransformation” value in series [7] is listed as “Compound NOT metabolized”; in series [8], “Compound NOT metabolized”; in series [9], “Compound metabolized”; in [10], “Compound NOT metabolized”; in [11], “Compound NOT metabolized”; in [12], “Compound metabolized”. Moreover, the “Bacterial Biotransformation” value in series [13] was “Compound metabolized”; in series [14], “Compound NOT metabolized”; in series [15], “Compound NOT metabolized”; in [16], “Compound NOT metabolized”; in [17], “Compound metabolized”; in [18], “Compound NOT metabolized”. Further, the “Bacterial Biotransformation” value in [19] and in [20] was “Compound NOT metabolized” each time.
